13 molecules from PubChem BioAssay (NCI) can be followed below.

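Interpolation was linear, between the two tested concentrations surrounding the appropriate level; five concentrations were tested over 48 hours in 96-well plates. Here, GI50 denotes the concentration required for 50% inhibition of growth. At the TGI there is no net growth.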

One experiment concerns HT29 colon. The experiment is described as follows: growth of human tumour cells (NCI), 48 h.
As to `Clc1ccccc1C(SCc1ccccc1)SCc1ccccc1`, the TGI was above 100 µM.

As for `Cc1c(O)c(O)cc[n+]1C1OC(CO)C(O)C1O` (configuration not stated), the TGI is above 100 µM.

Another experiment deals with UACC-62 melanoma. The experiment is described as follows: growth of human tumour cells (NCI), 48 h.
On to `COC(=O)C1SC(SC)=NC12c1ccccc1Nc1ccccc12` (configuration not stated), for which the TGI worked out at 34 µM.

In turn, `CCOC(=O)CSc1c(C(=O)OCC)c(=O)n(-c2ccccc2)c(=S)n1-c1ccccc1` registered a TGI above 100 µM.

Molecule `CCC(C(=O)O)c1ccc(OC)cc1` (configuration not stated) came in with a TGI above 100 µM.

As to `COC(CCC[N+](C)(C)C)CC[N+](C)(C)C` (configuration not stated), the TGI was above 100 µM.

In turn, `CC(C)(C)N1CSC(=S)N(Cc2ccco2)C1` gave a TGI of 20 µM.

The molecule `CC(C)CCS(=O)(=O)OCCCCOS(=O)(=O)CCC(C)C` came in with a TGI above 100 µM.

Turning to `CCCCC#C[I+]c1ccccc1`, the TGI worked out at 33 µM.

In turn, `COc1cc(C2c3cc4c(cc3OC(N3CCOCC3)C2C)OCO4)ccc1O` (configuration not stated) returned a TGI above 100 µM.

In turn, `O=C1CCCc2cc3c(cc21)CC1(Cc2ccccc2C1)C3` showed a TGI above 100 µM.

`CCOC(=O)c1cn2c(n1)sc1cccc(C)c12` yielded a TGI above 100 µM.

The molecule `Clc1ccccc1C(SCc1ccccc1)SCc1ccccc1` gave a TGI above 100 µM.

`Cc1c(O)c(O)cc[n+]1C1OC(CO)C(O)C1O` (configuration not stated): the TGI was above 100 µM.

The next experiment deals with MDA-MB-435. The experiment is described as follows: growth of human tumour cells (NCI), 48 h.
With `O=C(NC(=O)c1ccccc1[N+](=O)[O-])Nc1ccc(Oc2ncc(Br)cn2)c(Cl)c1`, the TGI came out at 0.0312 µM.

On to `COC(=O)C1SC(SC)=NC12c1ccccc1Nc1ccccc12` (configuration not stated), for which the TGI amounted to 67.8 µM.

Turning to `CCOC(=O)CSc1c(C(=O)OCC)c(=O)n(-c2ccccc2)c(=S)n1-c1ccccc1`, the TGI is above 100 µM.

With `CC(C)(C)N1CSC(=S)N(Cc2ccco2)C1`, the TGI came out at 13.4 µM.

On to `COc1cc(C2c3cc4c(cc3OC(N3CCOCC3)C2C)OCO4)ccc1O` (configuration not stated), for which the TGI is above 26.3 µM.

Molecule `O=C1CCCc2cc3c(cc21)CC1(Cc2ccccc2C1)C3` displayed a TGI of 4.61 µM.

For a further experiment, the system named is TK-10 renal. The experiment is described as follows: growth of human tumour cells (NCI), 48 h.
Regarding `O=C(NC(=O)c1ccccc1[N+](=O)[O-])Nc1ccc(Oc2ncc(Br)cn2)c(Cl)c1`, the GI50 is 10.5 µM.

On to `COC(=O)C1SC(SC)=NC12c1ccccc1Nc1ccccc12` (configuration not stated), for which the TGI was above 100 µM.

With `CCOC(=O)CSc1c(C(=O)OCC)c(=O)n(-c2ccccc2)c(=S)n1-c1ccccc1`, the TGI is above 100 µM.

In turn, `CCC(C(=O)O)c1ccc(OC)cc1` (configuration not stated) showed a TGI above 100 µM.

`COC(CCC[N+](C)(C)C)CC[N+](C)(C)C` (configuration not stated): the TGI was above 100 µM.

Take `CC(C)(C)N1CSC(=S)N(Cc2ccco2)C1`: the TGI worked out at 11.6 µM.

On to `CC(C)CCS(=O)(=O)OCCCCOS(=O)(=O)CCC(C)C`, for which the TGI is above 100 µM.

As to `CCCCC#C[I+]c1ccccc1`, the TGI is 28.6 µM.

In the case of `COc1cc(C2c3cc4c(cc3OC(N3CCOCC3)C2C)OCO4)ccc1O` (configuration not stated), the TGI was above 100 µM.

In turn, `O=C1CCCc2cc3c(cc21)CC1(Cc2ccccc2C1)C3` had a TGI above 100 µM.

Molecule `CCOC(=O)c1cn2c(n1)sc1cccc(C)c12` had a TGI above 100 µM.

Take `Clc1ccccc1C(SCc1ccccc1)SCc1ccccc1`: the TGI is above 100 µM.

For `Cc1c(O)c(O)cc[n+]1C1OC(CO)C(O)C1O` (configuration not stated), the TGI is above 100 µM.

The next experiment deals with UO-31 renal. The experiment is described as follows: growth of human tumour cells (NCI), 48 h.
For `COC(=O)C1SC(SC)=NC12c1ccccc1Nc1ccccc12` (configuration not stated), the TGI was above 100 µM.

For the molecule `CCOC(=O)CSc1c(C(=O)OCC)c(=O)n(-c2ccccc2)c(=S)n1-c1ccccc1`, the TGI was above 100 µM.

`CCC(C(=O)O)c1ccc(OC)cc1` (configuration not stated) registered a TGI above 100 µM.

Take `COC(CCC[N+](C)(C)C)CC[N+](C)(C)C` (configuration not stated): the TGI was above 100 µM.

In turn, `CC(C)(C)N1CSC(=S)N(Cc2ccco2)C1` showed a TGI of 6.14 µM.

`CC(C)CCS(=O)(=O)OCCCCOS(=O)(=O)CCC(C)C`: the TGI is above 100 µM.

`CCCCC#C[I+]c1ccccc1`: the TGI came to 30 µM.

The molecule `COc1cc(C2c3cc4c(cc3OC(N3CCOCC3)C2C)OCO4)ccc1O` (configuration not stated) gave a TGI above 92.8 µM.

In the case of `CCOC(=O)c1cn2c(n1)sc1cccc(C)c12`, the TGI is above 100 µM.

As for `Clc1ccccc1C(SCc1ccccc1)SCc1ccccc1`, the TGI was above 100 µM.

As to `Cc1c(O)c(O)cc[n+]1C1OC(CO)C(O)C1O` (configuration not stated), the TGI was above 100 µM.

A further experiment has as its system UACC-257 melanoma. The experiment is described as follows: growth of human tumour cells (NCI), 48 h.
For the molecule `O=C(NC(=O)c1ccccc1[N+](=O)[O-])Nc1ccc(Oc2ncc(Br)cn2)c(Cl)c1`, the TGI came to 0.0434 µM.

With `COC(=O)C1SC(SC)=NC12c1ccccc1Nc1ccccc12` (configuration not stated), the TGI amounted to 84.6 µM.

Molecule `CCOC(=O)CSc1c(C(=O)OCC)c(=O)n(-c2ccccc2)c(=S)n1-c1ccccc1` registered a TGI above 100 µM.

The molecule `CCC(C(=O)O)c1ccc(OC)cc1` (configuration not stated) yielded a TGI above 100 µM.

For `COC(CCC[N+](C)(C)C)CC[N+](C)(C)C` (configuration not stated), the TGI is above 100 µM.

In turn, `CC(C)(C)N1CSC(=S)N(Cc2ccco2)C1` registered a TGI of 25 µM.

For `CC(C)CCS(=O)(=O)OCCCCOS(=O)(=O)CCC(C)C`, the TGI is above 100 µM.

As for `CCCCC#C[I+]c1ccccc1`, the TGI is 30.8 µM.

With `COc1cc(C2c3cc4c(cc3OC(N3CCOCC3)C2C)OCO4)ccc1O` (configuration not stated), the TGI was above 100 µM.

In turn, `O=C1CCCc2cc3c(cc21)CC1(Cc2ccccc2C1)C3` came in with a TGI of 20.2 µM.

The molecule `CCOC(=O)c1cn2c(n1)sc1cccc(C)c12` gave a TGI above 100 µM.

As to `Clc1ccccc1C(SCc1ccccc1)SCc1ccccc1`, the TGI is above 100 µM.

Regarding `Cc1c(O)c(O)cc[n+]1C1OC(CO)C(O)C1O` (configuration not stated), the TGI was above 100 µM.
